# Legend:
# 4T1 cells [1] = experiment: ICD screening of chemo agents in 4T1 cells (CRT expression, HMGB1 release); type: cell-based, mouse; conditions: multi-parameter cellular screening
# Source text: One possible approach is to use chemotherapy to induce immunogenic cell death or ICD.
# [2] = cited from earlier work
# mTOR signaling = experiment: Western blot of mTOR signaling (P-S6K phosphorylation) in 4T1 cells in tryptophan-deficient DMEM; type: cell-based, mouse; conditions: 3 h, vs free IND
# 4T1 cells [3] = experiment: CRT induction by liposomes in 4T1 cells (flow cytometry)
# Source text: Panel B) All the particles were fully characterized abiotically and biotically.
# [4] = Determination of MTD doses in normal mice; conditions: mouse, in vivo, single IV administration
# Protocol: FIG. 26. Panel A) Determination of MTD doses for free MTX and liposomal MTX in normal mice. MTD doses for free MTX and liposomal MTX were 3 and 15 mg/kg for single IV administration. Due to the high MTD of liposomal MTX, we tested the efficacy of the MTX liposome at low dose (1 mg/Kg×3 times) and high dose (3 mg/Kg×3 times). Panel B) Pilot tumor size measurement in 4T1 orthotopic tumor-bearing mice (n=6) receiving IV free drug or MTX-only liposome. For free drug treatment, we have included 2 two schedules namely single IV at 3 mg/kg at Day 8 or IV injections at 1 mg/kg at Day 8, 11 and 14. Since MTX liposome has a 5× higher MTD dose, the tumor mice received single IV at 3 mg/kg at Day 8 or IV injections at Day 8, 11 and 14.
# Solubility and log P = type: physicochemical
# [5] = PK characteristics of free IND; conditions: in vivo
# KPC tumor = experiment: Vaccination with drug-treated dying KPC cells, live KPC challenge on contralateral side; type: in vivo, mouse; conditions: for KPC tumor growth in the contralateral flank (spaghetti curves) / KPC tumor size on the contralateral side: 2 rounds of vaccination one week apart; for KPC tumor size on the contralateral side: tumors collected on day 26
# Protocol: FIG. 6. […] DACHPt, 500 μM) for 24 h. HMBG1 release was measured using ELISA. Panel B) Animal experimentation using 2 rounds of vaccination one week apart, followed by injecting live KPC cells SC on the contralateral side. The details of the animal vaccination experiment are provided in the methods section. Tumors were collected on day 26 for size measurement and IHC analysis. Panel C) Tumor size measurement on the contralateral side. Panel D) Explanted tumor at the contralateral side. Panel E) Spaghetti curves to show KPC tumor growth in the contralateral flank. Panel F) Tumor collection was performed after euthanizing the animal to conduct IHC.
# Animal experiments were performed using two rounds of vaccination one week apart, followed by injecting live KPC cells SC on the contralateral side (FIG. 6, panel B). Tumors were collected on day 26 for size measurement and IHC analysis.
# Tumor collection was performed after euthanizing the animals to conduct IHC. IHC staining of CD8 and Foxp3 T cells was used to calculate CD8/FoxP3 T cell ratio in each group (see, e.g., FIG. 6, panel F).
# [6] = system: KPC pancreatic cancer cells; experiment: Induction of ICD marker CRT (flow cytometry) and HMGB1 release (ELISA) in cultured KPC pancreatic cancer cells; type: cell-based, mouse; conditions: 24 h; for induction of the ICD marker CRT: DOX 20 μM, OX 500 μM, activated DOX (DACHPt) 500 μM, flow cytometry; for HMGB1 release: ELISA
# Protocol: FIG. 6. Panel A) Flow cytometry experiment showing the induction of the ICD marker, CRT, in cultured KPC pancreatic cancer cells in the presence of PBS, DOX (20 μM), OX (500 μM), and activated […] (a.k.a. DACHPt, 500 μM) for 24 h. HMBG1 release was measured using ELISA. Panel B) Animal experimentation using 2 rounds of vaccination one week apart, followed by injecting live KPC cells SC on the contralateral side. The details of the animal vaccination experiment are provided in the methods section. Tumors were collected on day 26 for size measurement and IHC analysis. Panel C) Tumor size measurement on the contralateral side. Panel D) Explanted tumor at the contralateral side. Panel E) Spaghetti curves to show KPC tumor growth in the contralateral flank. Panel F) Tumor collection was performed after euthanizing the animal to conduct IHC. IHC staining of CD8 and Foxp3 T cells was used to calculate CD8/FoxP3 T cells ratio in each group. *p<0.05; **p<0.01
# ICD is a modified form of apoptosis that can be used to initiate an effective immune response against endogenous tumor antigens (Kroemer et al. (2013) Ann. Rev. Immunol., 31: 51-72).^1 Since this model was 1st proposed against the backdrop of a select number of cancer drugs (Id.), we focused on the use of OX, because it is FDA-approved for PDAC treatment. As a component of the FOLFIRINOX regimen (in combination with irinotecan, 5-FU and folinic acid). For comparison, we also included the anthracycline antibiotic, DOX, as a positive control and cisplatin (Cis) as a negative control for the screening of PDAC cell lines, using cell surface CRT expression (Obeid et al. (2017) Nat. Med., 13(1): 54-61; Casares et al. (2005) J. Exp. Med. 202(12): 1691-1701; Fucikova et al. (2011) Canc. Res. 71(14): 4821-4833; Tesniere et al. (2010) Oncogene, 29(4): 482-491; Galluzzi et al. (2012) Oncogene, 31(15): 1869-1883; Martins et al. (2011) Oncogene, 30(10): 1147-1158). CRT is an endoplasmic reticulum (ER) stress protein that translocates to the surface membrane of cancer cells undergoing ICD (Obeid et al. (2017) Nat. Med., 13(1): 54-61; Fucikova et al. (2011) Canc. Res. 71(14): 4821-4833). Screening for CRT expression was performed in murine KPC cells, derived from a spontaneous tumor that developed in a transgenic Kras^LSL-G12D/+/Trp53^LSL-R172H/+/Pdx-1-Cre (KPC) mouse (Hingorani et al. (2005) Cancer cell, 7(5): 469-483).
# The KPC model recapitulates many of disease features of human PDAC, including oncogene expression, development of a robust cancer stroma, extensive local invasion and distant metastases (Tones et al. (2013) PloS one, 8(11): e80580; Tseng et al. (2010) Clin. Canc. Res. 16(14): 3684-3695). DOX and OX and activated DOX induced the ICD marker CRT in cultured KPC pancreatic cancer cells (FIG. 6, panel A). […]
molecule,measurement,setting,value
CC(=O)O[C@H]1C(=O)[C@@]2(C)[C@H]([C@H](OC(=O)c3ccccc3)[C@]3(O)C[C@H](OC(=O)[C@H](O)[C@@H](NC(=O)c4ccccc4)c4ccccc4)C(C)=C1C3(C)C)[C@]1(OC(C)=O)CO[C@@H]1C[C@@H]2O [paclitaxel],"ICD induction (calreticulin expression, release of HMGB1)",4T1 cells [1],ICD inducer
NS(=O)(=O)NCCNc1nonc1C(=NO)Nc1ccc(F)c(Br)c1 [epacadostat],solubility in ethanol,[2],> 20 mg/mL
16:0 LysoPC-indoximod [IND-PL],effect on mTOR signaling (phosphorylation of P-S6K),mTOR signaling,enhanced effect
"O=c1[nH]cc(F)c(=O)[nH]1 [5-FU, 5-fluorouracil]","ICD induction (calreticulin expression, release of HMGB1)",4T1 cells [1],failed to induce the same effect
"O=C1c2c(O)ccc(O)c2C(=O)c2c(NCCNCCO)ccc(NCCNCCO)c21 [MTX, mitoxantrone]","ICD induction (calreticulin expression, release of HMGB1)",4T1 cells [1],can induce
same,CRT induction / ICD response in 4T1 cells (FIG. 31 panel B),4T1 cells [3],generation of an ICD response
same,MTD,[4],3 mg/kg
"Cn1cc(C[C@@H](N)C(=O)O)c2ccccc21 [Free IND, 1-methyl-D-tryptophan]",water solubility,Solubility and log P,relatively water insoluble
same,PK characteristics,[5],unfavorable PK characteristics
"O=C1[O][Pt]2([NH][C@@H]3CCCC[C@H]3[NH]2)[O]C1=O [OX, oxaliplatin]",KPC tumor growth in the contralateral flank (spaghetti curves),KPC tumor,decrease
same,KPC tumor size on the contralateral side,KPC tumor,significant reduction
same,CD8+/Foxp3+ ratio,KPC tumor; local and systemic tumor sites,capable of increasing
same,induction of the ICD marker CRT,[6],induced
same,HMGB1 release,[6],increased
"COc1cccc2c1C(=O)c1c(O)c3c(c(O)c1C2=O)C[C@@](O)(C(=O)CO)C[C@@H]3O[C@H]1C[C@H](N)[C@H](O)[C@H](C)O1 [DOX, doxorubicin]",KPC tumor growth in the contralateral flank (spaghetti curves),KPC tumor,decrease
same,KPC tumor size on the contralateral side,KPC tumor,significant reduction
same,"ICD induction (calreticulin expression, release of HMGB1)",4T1 cells [1],can induce
same,induction of the ICD marker CRT,[6],induced
same,HMGB1 release,[6],increased
N.N.[Cl][Pt][Cl] [cisplatin],"ICD induction (calreticulin expression, release of HMGB1)",4T1 cells [1],failed to induce the same effect
